Measurements published in the NIST ThermoML archive (doi:10.1021/je800077r).

What was measured:
[1] = refractive index (Na D-line) (dimensionless); xn = mol fraction of the nth substance listed; settings: 101 kPa, Liquid, Standard Abbe refractometry
[2] = xn = mol fraction of the nth substance listed; settings: 101 kPa, Liquid; for speed of sound: Sing-around technique in a fixed-path interferometer; for mass density: Vibrating tube method

CCCCCCn1cc[n+](C)c1.F[P-](F)(F)(F)(F)F [1-hexyl-3-methylimidazolium hexafluorophosphate] + CCOC(C)=O
Settings | mass density, 293.15 K [kg/m3] | mass density, 298.15 K [kg/m3] | mass density, 303.15 K [kg/m3] | refractive index, 293.15 K | refractive index, 298.15 K | refractive index, 303.15 K | speed of sound, 293.15 K [m/s] | speed of sound, 298.15 K [m/s] | speed of sound, 303.15 K [m/s]
[1], x1 = 0.0506 | – | – | – | 1.38064 | 1.37838 | 1.37606 | – | – | –
[1], x1 = 0.104 | – | – | – | 1.3874 | 1.38537 | 1.38312 | – | – | –
[1], x1 = 0.1978 | – | – | – | 1.39645 | 1.39415 | 1.39194 | – | – | –
[1], x1 = 0.2924 | – | – | – | 1.402 | 1.40007 | 1.39821 | – | – | –
[1], x1 = 0.4549 | – | – | – | 1.40845 | 1.4069 | 1.40523 | – | – | –
[1], x1 = 0.4974 | – | – | – | 1.40969 | 1.40821 | 1.40664 | – | – | –
[1], x1 = 0.5904 | – | – | – | 1.41237 | 1.41083 | 1.40893 | – | – | –
[1], x1 = 0.7015 | – | – | – | 1.41438 | 1.41296 | 1.4115 | – | – | –
[1], x1 = 0.7926 | – | – | – | 1.41592 | 1.41446 | 1.41307 | – | – | –
[1], x1 = 0.8941 | – | – | – | 1.41731 | 1.41594 | 1.41454 | – | – | –
[1], x1 = 0.9459 | – | – | – | 1.41797 | 1.41662 | 1.41526 | – | – | –
[1], x1 = 1 | – | – | – | 1.41923 | 1.41787 | 1.41643 | – | – | –
[2], x1 = 0.0506 | 952.6 | 946.8 | 941 | – | – | – | 1185 | 1163 | 1142
[2], x1 = 0.104 | 998.7 | 993.2 | 987.6 | – | – | – | 1210 | 1189 | 1169
[2], x1 = 0.1978 | 1063.8 | 1058.6 | 1053.4 | – | – | – | 1252 | 1233 | 1215
[2], x1 = 0.2924 | 1114.6 | 1109.8 | 1104.9 | – | – | – | 1288 | 1271 | 1254
[2], x1 = 0.4549 | 1179.7 | 1175.2 | 1170.5 | – | – | – | 1335 | 1320 | 1305
[2], x1 = 0.4974 | 1193.3 | 1188.9 | 1184.2 | – | – | – | 1346 | 1331 | 1317
[2], x1 = 0.5904 | 1219.5 | 1215.2 | 1210.7 | – | – | – | 1366 | 1352 | 1338
[2], x1 = 0.7015 | 1245.8 | 1241.5 | 1237.2 | – | – | – | 1387 | 1374 | 1361
[2], x1 = 0.7926 | 1263.8 | 1259.8 | 1255.6 | – | – | – | 1403 | 1390 | 1378
[2], x1 = 0.8941 | 1281.6 | 1277.6 | 1273.8 | – | – | – | 1420 | 1407 | 1395
[2], x1 = 0.9459 | 1289.8 | 1285.8 | 1282 | – | – | – | 1429 | 1415 | 1403
[2], x1 = 1 | 1297.9 | 1293.7 | 1289.6 | – | – | – | 1438 | 1424 | 1411
